From ChEMBL document CHEMBL6078643, “Palladium-Mediated Bioorthogonal System for Prodrug Activation of N-Benzylbenzamide-Containing Tubulin Polymerization Inhibitors for the Treatment of Solid Tumors” (J Med Chem, 2024)
Active and inactive are the calls of the source. No cut-off for these calls is given here.

What was measured:
HepG2 [1] = assay: Select factor, ratio of test compound IC50 to 5-fluoro-N-(3-hydroxy-4-methoxybenzyl)-2-morpholinobenzamide IC50 for antiproliferative activity against human HepG2 cells assessed as reduction in cell viability incubated for 72 hrs by CCK-8 assay; format: functional
K562 [2] = assay: Select factor, ratio of test compound IC50 to 5-fluoro-N-(3-hydroxy-4-methoxybenzyl)-2-morpholinobenzamide IC50 for antiproliferative activity against human K562 cells assessed as reduction in cell viability incubated for 72 hrs by CCK-8 assay; format: functional
K562 [3] = assay: Antiproliferative activity against human K562 cells at 100 nM incubated for 72 hrs in presence of palladium resins by CCK-8 assay; format: functional, cell-based
Tubulin (Homo sapiens) [4] = target: T1, Tubulin (Homo sapiens) (UniProt P68371+Q9H4B7+P0DPH7+P68366+Q13509+Q71U36+P04350+Q3ZCM7+P07437+P68363+Q9BQE3+Q6PEY2+Q13885+Q9BVA1+Q9BUF5); assay: Inhibition of tubulin polymerization in human HepG2 cells assessed as decrease in polymerized alpha tubulin level at 80 nM incubated for 24 hrs in presence of palladium resins by Western blotting analysis; format: cell-based
K562 [5] = assay: Induction of apoptosis in human K562 cells assessed as early apoptotic cells at 80 nM incubated for 72 hrs by Annexin V-APC staining based flow cytometric analysis (reference value: 2.78%); format: functional
HUVEC = assay: Antivascular activity against HUVEC cells assessed as inhibition of cell migration at 80 nM incubated for 24 hrs by phase contrast microscopic analysis; format: functional, cell-based; conditions: Homo sapiens
[6] = Prodrug release in PBS buffer assessed as half release time of 5-fluoro-N-(3-hydroxy-4-methoxybenzyl)-2-morpholinobenzamide in presence of palladium resins at 75 uM by HPLC analysis; format: ADME
[7] = Toxicity in Balb/c mouse xenografted with human HepG2 cells assessed as effect on spleen at 20 mg/kg, iv administered daily in presence of palladium resins for 14 days by H and E staining based analysis; format: organism-based; conditions: in vivo, 336 h, time 14 day
[8] = Toxicity in Balb/c mouse xenografted with human HepG2 cells assessed as effect on lung at 20 mg/kg, iv administered daily in presence of palladium resins for 14 days by H and E staining based analysis; format: organism-based; conditions: in vivo, 336 h, time 14 day
K562 [9] = assay: Induction of apoptosis in human K562 cells assessed as late apoptotic cells at 80 nM incubated for 72 hrs by Annexin V-APC staining based flow cytometric analysis (reference value: 1.36%); format: functional
K562 [10] = assay: Antiproliferative activity against human K562 cells assessed as reduction in cell viability incubated for 72 hrs by CCK-8 assay; format: functional, cell-based; conditions: K562, 72 h
K562 [11] = assay: Induction of apoptosis in human K562 cells assessed as late apoptotic cells at 80 nM incubated for 72 hrs in presence of palladium resins by Annexin V-APC staining based flow cytometric analysis (reference value: 1.36%); format: functional
K562 [12] = assay: Induction of cell cycle arrest in human K562 cells assessed as accumulation of cells at S phase at 80 nM incubated for 72 hrs by PI staining based flow cytometric analysis ( Rvb = 14.04 %); format: functional
K562 [13] = assay: Induction of cell cycle arrest in human K562 cells assessed as accumulation of cells at G2/M phase at 80 nM incubated for 72 hrs in presence of palladium resins by PI staining based flow cytometric analysis ( Rvb = 8.5 %); format: functional
[14] = Toxicity in Balb/c mouse xenografted with human HepG2 cells assessed as change in body weight at 20 mg/kg, iv administered daily in presence of palladium resins for 14 days and measured every 2 days; format: organism-based; conditions: in vivo, 336 h, time 14 day
[15] = Select factor, ratio of test compound IC50 to 5-fluoro-N-(3-hydroxy-4-methoxybenzyl)-2-morpholinobenzamide IC50 for antiproliferative activity against human THLE-2 cells assessed as reduction in cell viability incubated for 72 hrs by CCK-8 assay; format: toxicity, cell-based; conditions: read-out: Ratio IC50
[16] = Antiproliferative activity against human THLE-2 cells assessed as reduction in cell viability incubated for 72 hrs by CCK-8 assay; format: toxicity, cell-based
Tubulin (Homo sapiens) [17] = target: T1, Tubulin (Homo sapiens); assay: Inhibition of tubulin polymerization in human K562 cells assessed as decrease in beta tubulin expression at 80 nM incubated for 24 hrs in presence of palladium resins by Western blotting analysis; format: cell-based
Tubulin (Homo sapiens) [18] = target: T1, Tubulin (Homo sapiens); assay: Disruption of microtubule organization in human K562 cells at 80 nM incubated for 72 hrs in presence of palladium resins by DAPI staining based confocal microscopic analysis; format: cell-based
HepG2 [19] = assay: Antitumor activity against human HepG2 cells xenografted in Balb/c mouse assessed as cell necrosis at 20 mg/kg, iv administered daily for 14 days in presence of palladium resins by H and E staining based analysis; format: functional, organism-based; conditions: time 14.0 day
Tubulin (Homo sapiens) [20] = target: T1, Tubulin (Homo sapiens); assay: In vivo inhibition of tubulin polymerization in human HepG2 cells xenografted in Balb/c mouse assessed as decrease in alpha tubulin expression at 20 mg/kg, iv administered daily for 14 days in presence of palladium resins incubated for 24 hrs by Western blot analysis; format: functional, organism-based; conditions: time 14.0 day
Tubulin (Homo sapiens) [21] = target: T1, Tubulin (Homo sapiens); assay: Inhibition of tubulin polymerization in human HepG2 cells assessed as decrease in alpha tubulin expression at 80 nM incubated for 24 hrs in presence of palladium resins by Western blotting analysis; format: cell-based
K562 [22] = assay: Induction of apoptosis in human K562 cells assessed as early apoptotic cells at 80 nM incubated for 72 hrs in presence of palladium resins by Annexin V-APC staining based flow cytometric analysis (reference value: 2.78%); format: functional
Tubulin (Homo sapiens) [23] = target: T1, Tubulin (Homo sapiens); assay: Disruption of microtubule organization in human K562 cells assessed as appearance of fibrous microtubules at 80 nM incubated for 72 hrs by DAPI staining based confocal microscopic analysis; format: cell-based
K562 [24] = assay: Induction of ROS generation in human K562 cells assessed as increase in DCF-positive cells incubated for 72 hrs by DCF-DA staining based flow cytometric analysis (reference value: 7.67%); format: functional
K562 [25] = assay: Induction of ROS generation in human K562 cells assessed as increase in DCF-positive cells at 80 nM incubated for 72 hrs in presence of palladium resins by DCF-DA staining based flow cytometric analysis (reference value: 7.67%); format: functional
[26] = target: Bcr/Abl fusion protein (Homo sapiens) (UniProt P00519+P11274); assay: Inhibition of Bcr-Abl in human K562 cells at 80 nM incubated for 24 hrs in presence of palladium resins by Western blotting analysis; format: cell-based
HepG2 [27] = assay: Cytotoxicity against human HepG2 cell assessed as parent drug 5-fluoro-N-(3-hydroxy-4-methoxybenzyl)-2-morpholinobenzamide mediated decrease in cell viability at 100 nM in presence of palladium resins incubated for 72 hrs by CCK-8 assay; format: functional, cell-based
K562 [28] = assay: Induction of apoptosis in human K562 cells assessed as chromatin condensation at 80 nM incubated for 72 hrs in presence of palladium resins by Hoechst 33342 staining based fluorescent microscopic analysis; format: functional, cell-based
Tubulin (Homo sapiens) [29] = target: T1, Tubulin (Homo sapiens); assay: Disruption of microtubule organization in human K562 cells assessed as appearance of slim microtubules at 80 nM incubated for 72 hrs by DAPI staining based confocal microscopic analysis; format: cell-based
Tubulin (Homo sapiens) [30] = target: T1, Tubulin (Homo sapiens); assay: Inhibition of tubulin polymerization in human K562 cells assessed as decrease in polymerized alpha tubulin level at 80 nM incubated for 24 hrs in presence of palladium resins by Western blotting analysis; format: cell-based

Chain of Bcr/Abl fusion protein (Homo sapiens) (P00519 whole entry, looked up, the tested form may be a part): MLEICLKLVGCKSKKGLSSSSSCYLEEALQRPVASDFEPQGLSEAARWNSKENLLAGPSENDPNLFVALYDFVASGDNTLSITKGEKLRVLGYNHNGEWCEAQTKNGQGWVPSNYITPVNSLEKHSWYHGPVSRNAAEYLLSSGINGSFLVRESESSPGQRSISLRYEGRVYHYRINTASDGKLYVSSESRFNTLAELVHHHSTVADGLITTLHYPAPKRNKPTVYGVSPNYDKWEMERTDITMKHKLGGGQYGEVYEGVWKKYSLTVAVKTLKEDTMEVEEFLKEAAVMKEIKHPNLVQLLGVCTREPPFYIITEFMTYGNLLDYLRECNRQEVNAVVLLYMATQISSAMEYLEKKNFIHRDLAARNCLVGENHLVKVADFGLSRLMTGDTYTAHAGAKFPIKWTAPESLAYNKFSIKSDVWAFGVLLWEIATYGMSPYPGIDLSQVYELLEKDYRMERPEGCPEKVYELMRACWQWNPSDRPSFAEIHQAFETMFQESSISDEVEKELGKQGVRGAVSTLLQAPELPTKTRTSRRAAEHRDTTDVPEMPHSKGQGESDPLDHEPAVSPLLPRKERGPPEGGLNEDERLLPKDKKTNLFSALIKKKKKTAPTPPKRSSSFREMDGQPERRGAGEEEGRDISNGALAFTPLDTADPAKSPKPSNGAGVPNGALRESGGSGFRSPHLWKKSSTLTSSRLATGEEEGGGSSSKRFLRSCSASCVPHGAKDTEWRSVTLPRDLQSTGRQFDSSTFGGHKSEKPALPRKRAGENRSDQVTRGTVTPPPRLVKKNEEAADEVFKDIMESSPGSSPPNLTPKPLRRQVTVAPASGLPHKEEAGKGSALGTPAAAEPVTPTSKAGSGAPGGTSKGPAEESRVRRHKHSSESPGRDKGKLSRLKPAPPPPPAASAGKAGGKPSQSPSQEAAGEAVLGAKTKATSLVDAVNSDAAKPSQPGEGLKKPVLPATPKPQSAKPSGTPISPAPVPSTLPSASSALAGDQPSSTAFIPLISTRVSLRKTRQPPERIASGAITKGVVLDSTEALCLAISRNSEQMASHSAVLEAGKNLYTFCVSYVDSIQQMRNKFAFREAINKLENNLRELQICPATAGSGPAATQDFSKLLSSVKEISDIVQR
Chain of Bcr/Abl fusion protein (Homo sapiens) (P11274 whole entry, looked up, the tested form may be a part): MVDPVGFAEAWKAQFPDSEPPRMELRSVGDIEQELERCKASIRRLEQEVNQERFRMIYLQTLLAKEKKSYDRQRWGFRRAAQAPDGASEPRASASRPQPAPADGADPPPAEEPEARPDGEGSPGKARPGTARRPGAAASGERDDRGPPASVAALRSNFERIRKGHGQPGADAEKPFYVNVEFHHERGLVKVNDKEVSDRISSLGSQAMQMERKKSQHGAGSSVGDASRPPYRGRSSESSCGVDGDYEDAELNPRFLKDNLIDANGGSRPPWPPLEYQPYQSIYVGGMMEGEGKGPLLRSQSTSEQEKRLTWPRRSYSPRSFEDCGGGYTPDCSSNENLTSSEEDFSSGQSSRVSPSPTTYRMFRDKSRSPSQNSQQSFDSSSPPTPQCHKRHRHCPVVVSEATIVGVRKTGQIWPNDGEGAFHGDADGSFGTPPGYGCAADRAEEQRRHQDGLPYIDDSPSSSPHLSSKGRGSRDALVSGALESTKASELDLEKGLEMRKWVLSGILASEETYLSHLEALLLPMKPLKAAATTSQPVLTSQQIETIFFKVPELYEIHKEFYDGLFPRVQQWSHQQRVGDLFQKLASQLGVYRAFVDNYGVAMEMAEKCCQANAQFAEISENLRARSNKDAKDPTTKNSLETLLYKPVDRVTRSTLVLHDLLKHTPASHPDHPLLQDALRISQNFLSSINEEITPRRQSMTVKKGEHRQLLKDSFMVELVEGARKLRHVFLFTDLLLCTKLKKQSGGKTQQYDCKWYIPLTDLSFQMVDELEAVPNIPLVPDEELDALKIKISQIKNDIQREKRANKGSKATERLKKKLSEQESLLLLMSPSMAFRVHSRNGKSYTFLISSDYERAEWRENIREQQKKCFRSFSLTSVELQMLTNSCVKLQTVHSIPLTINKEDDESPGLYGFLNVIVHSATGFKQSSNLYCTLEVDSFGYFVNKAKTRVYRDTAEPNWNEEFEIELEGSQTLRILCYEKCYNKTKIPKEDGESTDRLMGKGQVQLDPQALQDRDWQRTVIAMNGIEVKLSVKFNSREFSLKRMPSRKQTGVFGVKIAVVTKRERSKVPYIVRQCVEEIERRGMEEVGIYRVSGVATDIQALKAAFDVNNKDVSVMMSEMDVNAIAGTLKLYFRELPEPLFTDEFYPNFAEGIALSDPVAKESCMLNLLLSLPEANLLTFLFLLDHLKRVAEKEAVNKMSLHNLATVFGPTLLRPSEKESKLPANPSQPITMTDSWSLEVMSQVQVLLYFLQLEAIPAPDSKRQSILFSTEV

For `C#CCOc1cc(CNC(=O)c2cc(F)ccc2N2CCOCC2)ccc1OC`, the “Ratio IC50” value (HepG2 [1]) was 68.3, the “Ratio IC50” value (K562 [2]) was 69.1 and the Activity (K562 [3]) was “Active”. The inhibition (Tubulin (Homo sapiens) [4]) was “Active”, the Activity (K562 [5]) was 4.26% and the Activity (HUVEC) was “inactive”. The t1/2 [6] was 7.2 h, the Activity [7] was “Non-toxic” and the Activity [8] was “Non-toxic”. The Activity (K562 [9]) was 1.96%, the IC50 (K562 [10]) was 1100 nM and the Activity (K562 [11]) was 27.82%. The Activity (K562 [12]) was 23.64%, the Activity (K562 [13]) was 12.3% and the Activity [14] was “Non-toxic”. The selectivity ratio at 72 h [15] was 66.2, the IC50 at 72 h [16] was 1420 nM and the inhibition (Tubulin (Homo sapiens) [17]) was “Active”. For the same compound, the Activity (Tubulin (Homo sapiens) [18]) was “Active”, the Activity (HepG2 [19]) was “Active” and the Activity (Tubulin (Homo sapiens) [20]) was “Active”. For the same compound, the inhibition (Tubulin (Homo sapiens) [21]) was “Active”, the Activity (K562 [22]) was 23.78% and the Activity (Tubulin (Homo sapiens) [23]) was “Active”. The Activity (K562 [24]) was 8.22%, the Activity (K562 [25]) was 54.85% and the inhibition [26] was “Active”. For the same compound, the Activity (HepG2 [27]) was “Active”, the Activity (K562 [28]) was “Active” and the Activity (Tubulin (Homo sapiens) [29]) was “Active”. For the same compound, the inhibition (Tubulin (Homo sapiens) [30]) was “Active”.
